We go through one compound from paper PMC8728392, “Synthesis, Anticancer Assessment, and Molecular Docking of Novel Chalcone-Thienopyrimidine Derivatives in HepG2 and MCF-7 Cell Lines” (Oxidative Medicine and Cellular Longevity, 2021).

Each structure is given as a SMILES string.

The subject of the assay is Bax, Bcl-2, caspase-3, and caspase-9 in HepG2. The assay can be described thus: RT-PCR relative expression of apoptosis markers. Format: cell-based, human. Conditions: IC50, 8-hour incubation, vs control. From the text:
We determined the effect of IC50 concentration of newly synthesized thienopyrimidine derivatives (3a-e and 3g and 3b and 3g) on the relative expression levels of some markers of apoptosis in HepG2 and MCF-7 cell lines, respectively. These included the antiapoptotic marker Bcl-2 as well as the apoptotic markers Bax, caspase-3, and caspase-9 [33]. BIORAD iScript™ One-Step RT-PCR kit with SYBR® Green was used to assess the relative levels of expression of apoptosis markers. The measurement was carried out according to the technique of reverse transcription polymerase chain reaction (RT-PCR) using the Rotor-Gene RT-PCR system, and the method of the used kit was done based on the manufacturer's instructions. The procedure of this assay included the following:
Based on the manufacturer's instructions, the Qiagen RNeasy Extraction Kit (Qiagen Ltd., UK) was used to isolate mRNA from approximately 1 × 10^7 cells according to the cell line.
Mix all the following reagents to get the total volume (50 μl): 2X SYBR® Green RTPCR reaction mixture (25 μl), forward primer […] (1.5 μl), reverse primer […] (1.5 μl), nuclease-free water (11 μl), RNA template (1 pg-100 ng total RNA) (10 μl), and iScript reverse transcriptase (1 μl) for One-Step RT-PCR.
The thermal cycler (Rotor-Gene) program used was as follows: one cycle for reverse transcription at 50°C for 10 minutes and one cycle for RT inactivation/Hot-start activation at 95°C for 5 minutes and then 45 cycles for qPCR (10 s at 95°C, 30 seconds for annealing at 55°C, and 30 seconds for extension at 72°C), and this is followed by the final extension (one cycle) at 72°C for 10 minutes.

In the case of `CCOC(=O)Cn1c(SCC(=O)Nc2ccc(C(=O)/C=C\c3cccc([N+](=O)[O-])c3)cc2)nc2sc3c(c2c1=O)CC(C)(C)NC3(C)C` [Compound 3g, Ethyl (Z)-2-(6,6,8,8-Tetramethyl-2-((2-((4-(3-(3-nitrophenyl)acryloyl)-phenyl)amino)-2-oxoethyl)thio)-4-oxo-5,6,7,8-tetrahydropyrido[4′,3′:4,5]thieno[2,3-d]pyrimidin-3(4H)-yl)acetate], the “expression levels of Bcl-2” value is given as “noticeably decreased”.
